A short description of series [1]: Analytical RP-HPLC elution (ACN %) as measure of hydrophobicity. In kind it is physicochemical. Conditions: chromatographic, C18 column (250 × 4.6 mm Nucleosil), 30 min gradient 5–95% ACN in water with 0.1% TFA, 1 mL/min, used as measure of hydrophobicity. The protocol: Peptoids were synthesized on resin manually or with an automated synthesizer (Prelude X, Gyros Protein Technologies) using a solid phase “submonomer” approach (Zuckermann et al., [1992]; Lau, [2014]; Lau et al., [2017]). Briefly, the Fmoc protected rink amide resin was deprotected with 20% piperidine for 20 min, applied twice. Each residue was added by treatment to a mixture of bromoacetic acid (20 times excess) and diisopropyl-carbodiimide (18.5 times excess) for 15 min, followed by a halo-substitution reaction with appropriate primary amine submonomers. For the attachment of a di ethylene glycol linker, Fmoc-amino-3,6 dioxaoctanoic acid (1.8 mmol), and equivalent moles of HBTU ((2-(1H-benzotriazol-1-yl)-1,1,3,3-tetramethyluronium hexafluorophosphate) were reacted with the terminal amino group in the presence of N,N-diisopropylethylamine (DIPEA, 2.7 mmol). This reaction was carried out for 2 h at 37°C and repeated a second time for 4 h, to ensure coupling. Like resin Fmoc deprotection, EG2 N-terminal Fmoc deprotection was achieved using 20% piperidine for 20 min, applied twice. Different chain lengths of saturated fatty acids, i.e., pelargonic acid (C8), lauric acid (C11), and palmitic acid (C15) were subsequently coupled using the HBTU amide coupling as reported previously (Lau et al., [2017]). After solid phase synthesis, the resin was cleaved and side chains were deprotected for 30 min using a standard TFA:TIPS:H2O cocktail (95:2.5:2.5 v/v/v). Excess TFA was removed using a rotary evaporator and the peptoid was precipitated from the oily product using diethyl ether. The collected material was dissolved in small amounts of 1:1 acetonitrile:water (ACN:H2O) to ease sample transfer, and further dried in a lyophilizer. Dried crude products were weighed and dissolved in ACN-H2O mixtures for preparative RP-HPLC (Dionex Ultimate 3000) with a C18 column (250 × 10 mm Phenomenex Jupiter). Fractions containing the pure product were identified by ESI-LC-MS (Agilent 1200 with a Poroshell C18 column coupled to an Agilent 6130 mass spectrometer) and by analytical RP-HPLC (Dionex P680) using a C18 column (250 × 4.6 mm “Nucleosil”) with a 30 min gradient of 5–95% acetonitrile (ACN) in water containing 0.1% TFA at 1 mL/min. The purified fractions of peptoids and lipopeptoids were later stored as aliquots at −20°C until further analysis.

Series [2] can be described thus: Critical aggregation concentration (CAC) Nile red fluorescence assay. In kind it is physicochemical. The settings on record: room temperature. The protocol:
Nile red (NR) fluorescence was used to measure critical aggregation concentration (CAC) for the synthesized lipopeptoids. Lipopeptoids were dissolved at 2.5 × 10^−2 to 1 wt.% in a dilute solution of Nile red (0.25 μg/100 mL, i.e. ~10 nM concentration) prepared in water. NR was excited at 552 nm and emission was recorded at room temperature in the range 550–750 nm using a 10.0 × 5.0 mm^2 quartz cell (Jasco spectrofluorimeter FP-6500). The intensity of the peak centered around 610 nm is shown in the data presented in Section results and discussion.
We first examined with a CAC assay whether coupling a hydrophobic tail to AMPMs and inserting the kk and EG2 components is a viable design for generating self-assembling lipopeptoids. The CAC measures the concentration above which hydrophobic pockets (e.g., lipophilic cores of micelles) are formed, and lower CACs indicate higher propensities of self-assembly. In our experiments, the CAC is indicated by an inflection in the increase in emission intensity of a lipophilic fluorophore tracer (Nile Red) that emits more strongly when partitioned into hydrophobic lower dielectric environments (see Figure S6 for an example analysis).

The test system of series [3] is Escherichia coli (ATCC 25922). Format: cell-based. The protocol: (§1) Technical triplicates (n = 3) or more of samples at each concentration were analyzed.
Series [4] concerns Pseudomonas aeruginosa (PA01). Format: cell-based. The protocol: as §1
Series [5] concerns Staphylococcus aureus (NCTC 4135). Format: cell-based. The protocol:
as §1

A short description of series [6]: Small angle X-ray scattering (SAXS), size of nano-assemblies. In kind it is physicochemical. The settings on record: 1 wt.% peptoid solution, fitted. The protocol:
SAXS experiments were performed on the bioSAXS beamline B21 at Diamond Light Source, U.K., using a previously established protocol (Castelletto et al., [2019]). Briefly, solutions containing 1 wt.% peptoid were loaded into a set of PCR tubes fitted in the 96-well plate of the BioSAXS robot. From there, the robot loaded the solutions into a quartz capillary perpendicularly placed in the path of the incident X-ray beam. SAXS data, collected using a Dectris PILATUS 2 M detector at a fixed camera length of 3.9 m, is presented as scattering intensity vs. q = 4π sinθ /λ (2θ: scattering angle; wavelength: λ = 1 Å). See Supplementary Information for description of SAXS data fitting.

The nature of series [7]: Dynamic light scattering (DLS), hydrodynamic radius of nano-assemblies. In kind it is physicochemical. The settings on record: 0.4 wt.% in deionized water, 0.22 μm filtered, 25°C, detection angle 90°. The protocol:
DLS measurements were carried out at room temperature (25°C) using an ALV/LSE-5004 instrument equipped with He-Ne laser (λ = 632.8 nm) at a detection angle of θ = 90° (Lau et al., [2017]). Samples were prepared at a concentration of 0.4 wt.% in deionized water (DI) water and further filtered using 0.22 μm pore size surfactant-free cellulose acetate (SFCA) syringe filters (Sigma Aldrich, UK) to avoid particulate contamination.

Series [8] is described as follows: Cryo-TEM, size of nano-assemblies. Format: physicochemical. The settings on record: vitrified sample. The protocol:
Sizes of selected lipopeptoid nano-assemblies were verified using a field emission cryo-electron microscope (JEOL JEM3200FSC), operating at 200 kV and at −187°C, configured in bright field mode and zero loss energy filtering (omega type) with a slit width of 20 eV. Sizes of selected lipopeptoids nano-assemblies were measured from photographs recorded using a Gatan Ultrascan 4000 CCD camera. Vitrified specimens were prepared on Quantifoil 3.5/1 holey carbon copper grids (hole size of 3.5 μm). The grids were first plasma cleaned using a Gatan Solarus 9500 plasma cleaner and then transferred into the environmental chamber of an automated FEI Vitrobot device at room temperature and 100% humidity. Thereafter, 3 μL of the sample solution was applied on the grid, which was blotted twice for 5 s and then vitrified in a 1:1 mixture of liquid ethane and propane at a temperature of −180°C. The grids with vitrified sample solution were maintained at liquid nitrogen temperature and then cryo-transferred to the microscope.

Setting [9] is: Nile red fluorescence (~10 nM NR in water), lipopeptoids 2.5 × 10^-2 to 1 wt.%, excitation 552 nm, peak around 610 nm, inflection in emission intensity.
Where [10] appears, read: MH broth microdilution (CLSI M07-A10), ~5 × 10^5 CFU/mL, overnight 37°C, OD 600 nm, MIC = concentration with OD halfway between minimum and maximum, sigmoidal fit ± SD, n = 3 or more, maximum tested 100 μM.

Where “and” joins values, the source holds several entries; their conditions need not be identical. Equal entries are not always repeated. Where two headings read alike, the source gives them in different places. Square brackets hold non-standard residues; d marks the D form. Peptide text beside a SMILES is read from it. * marks the point of attachment. Palmitoyl = CCCCCCCCCCCCCCCC(=O)*; Nspe = C[C@H](NCC(=O)O)c1ccccc1; Lauroyl = CCCCCCCCCCCC(=O)*; AEEA = NCCOCCOCC(=O)O; Nlys = NCCCCNCC(=O)O

As to `CCCCCCCCCCCC(=O)NCCOCCOCC(=O)N(CCCCN)CC(=O)N(CC(=O)N(CC(=O)N(CCCCN)CC(=O)N(CC(=O)N(CC(=O)N(CCCCN)CC(=O)N(CCCCN)CC(N)=O)[C@@H](C)c1ccccc1)[C@@H](C)c1ccccc1)[C@@H](C)c1ccccc1)[C@@H](C)c1ccccc1` [C11-EG2-(kss)2-kk] ({Lauroyl-AEEA}-[Nlys][Nspe][Nspe][Nlys][Nspe][Nspe][Nlys][Nlys]-NH2), the “elution ACN % (RP-HPLC retention)” value in series [1] is reported as 52 ACN %. The CAC in [2] (setting [9]) was 198 µM and 200 ± 17 µM.
For `CCCCCCCCCCCCCCCC(=O)NCCOCCOCC(=O)N(CCCCN)CC(=O)N(CC(=O)N(CC(=O)N(CCCCN)CC(=O)N(CC(=O)N(CC(=O)N(CCCCN)CC(=O)N(CC(=O)N(CC(=O)N(CCCCN)CC(=O)N(CC(=O)N(CC(=O)N(CCCCN)CC(=O)N(CCCCN)CC(N)=O)[C@@H](C)c1ccccc1)[C@@H](C)c1ccccc1)[C@@H](C)c1ccccc1)[C@@H](C)c1ccccc1)[C@@H](C)c1ccccc1)[C@@H](C)c1ccccc1)[C@@H](C)c1ccccc1)[C@@H](C)c1ccccc1` [C15-EG2-(kss)4-kk] ({Palmitoyl-AEEA}-[Nlys][Nspe][Nspe][Nlys][Nspe][Nspe][Nlys][Nspe][Nspe][Nlys][Nspe][Nspe][Nlys][Nlys]-NH2), the Hydrodynamic radius RH (DLS) is 45 nm. The “Antimicrobial activity (MIC) E. coli” value in [3] came out at 44 ± 5 µM. The “Antimicrobial activity (MIC) P. aeruginosa” value in series [4] is >100 µM. Besides, in series [5], the “Antimicrobial activity (MIC) S. aureus” value was found to be 36 ± 5 µM.
Take `CCCCCCCCCCCC(=O)NCCOCCOCC(=O)N(CCCCN)CC(=O)N(CC(=O)N(CC(=O)N(CCCCN)CC(=O)N(CC(=O)N(CC(=O)N(CCCCN)CC(=O)N(CC(=O)N(CC(=O)N(CCCCN)CC(=O)N(CCCCN)CC(N)=O)[C@@H](C)c1ccccc1)[C@@H](C)c1ccccc1)[C@@H](C)c1ccccc1)[C@@H](C)c1ccccc1)[C@@H](C)c1ccccc1)[C@@H](C)c1ccccc1` [C11-EG2-(kss)3-kk] ({Lauroyl-AEEA}-[Nlys][Nspe][Nspe][Nlys][Nspe][Nspe][Nlys][Nspe][Nspe][Nlys][Nlys]-NH2): the “elution ACN % (RP-HPLC retention)” value in [1] is 54 ACN %. The CAC came to 310 ± 38 µM in [2] (setting [9]) and 0.52 mg/mL in series [2] (Nile red fluorescence in water, CAC expressed in mg/mL). Besides, the “Antimicrobial activity (MIC) E. coli” value in [3] (setting [10]) is 3 ± 0.2 µM. Besides, in series [4] (PA01, MH broth microdilution (CLSI M07-A10), ~5 × 10^5 CFU/mL, overnight 37°C, OD 600 nm, MIC = concentration with OD halfway between minimum and maximum, sigmoidal fit ± SD, n = 3 or more, maximum tested 100 μM), the “Antimicrobial activity (MIC) P. aeruginosa” value was determined as 15 ± 0.4 µM. In addition, the “Antimicrobial activity (MIC) S. aureus” value in series [5] (setting [10]) is 1 ± 0.1 µM.
Regarding `CCCCCCCCCCCCCCCC(=O)N(CCCCN)CC(=O)N(CC(=O)N(CC(=O)N(CCCCN)CC(=O)N(CC(=O)N(CC(=O)N(CCCCN)CC(=O)N(CC(=O)N(CC(=O)N(CCCCN)CC(=O)N(CC(=O)N(CC(=O)N(CCCCN)CC(=O)N(CCCCN)CC(N)=O)[C@@H](C)c1ccccc1)[C@@H](C)c1ccccc1)[C@@H](C)c1ccccc1)[C@@H](C)c1ccccc1)[C@@H](C)c1ccccc1)[C@@H](C)c1ccccc1)[C@@H](C)c1ccccc1)[C@@H](C)c1ccccc1` [C15-(kss)4-kk] (Palmitoyl-[Nlys][Nspe][Nspe][Nlys][Nspe][Nspe][Nlys][Nspe][Nspe][Nlys][Nspe][Nspe][Nlys][Nlys]-NH2), in series [1], the “elution ACN % (RP-HPLC retention)” value was 66 ACN %. The CAC in series [2] (setting [9]) was 304 µM and 300 ± 25 µM.
As to `CCCCCCCCCCCCCCCC(=O)NCCOCCOCC(=O)N(CCCCN)CC(=O)N(CC(=O)N(CC(=O)N(CCCCN)CC(=O)N(CC(=O)N(CC(=O)N(CCCCN)CC(=O)N(CC(=O)N(CC(=O)N(CCCCN)CC(=O)N(CC(=O)N(CC(N)=O)[C@@H](C)c1ccccc1)[C@@H](C)c1ccccc1)[C@@H](C)c1ccccc1)[C@@H](C)c1ccccc1)[C@@H](C)c1ccccc1)[C@@H](C)c1ccccc1)[C@@H](C)c1ccccc1)[C@@H](C)c1ccccc1` [C15-EG2-(kss)4] ({Palmitoyl-AEEA}-[Nlys][Nspe][Nspe][Nlys][Nspe][Nspe][Nlys][Nspe][Nspe][Nlys][Nspe][Nspe]-NH2), the “elution ACN % (RP-HPLC retention)” value in series [1] is reported as 82 ACN %. Also, the “radius of nano-assemblies (SAXS)” value in series [6] turned out to be 24 ± 5 nm. The CAC in series [2] (setting [9]) was 38 µM and 38 ± 3 µM; in [2] (Nile red fluorescence in water, CAC expressed in wt.%), 0.0075 wt.%. For the same compound, the “hydrodynamic radius (RH)” value in series [7] was “ca. 50 nm”. Besides, the “diameter of smallest non-compact aggregates (TEM)” value in series [8] was “ca. 5 nm”.

(Values after publication PMC7253723, “Chain-End Modifications and Sequence Arrangements of Antimicrobial Peptoids for Mediating Activity and Nano-Assembly” (Frontiers in Chemistry, 2020).)
